Results: paper PMC11481179, “Development and Application of Reversible and Irreversible Covalent Probes for Human and Mouse Cathepsin‐K Activity Detection, Revealing Nuclear Activity” (Advanced Science, 2024)

Assays:
Assay in all cases: Recombinant cathepsin inhibition, residual activity labeled by pan cathepsin probe GB123, in-gel fluorescence
Type in all cases: biochemical
[1] = target: CTSB (Homo sapiens, UniProt P07858); details: even at 10 µM
Experimental: (§1) Figure 1 In vitro evaluation of CTSK targeted compounds. a) Labeling of recombinant cathepsins by ABPs. Recombinant cathepsins were treated with increasing concentrations of ABPs for 1 h. Samples were separated by SDS‐PAGE and scanned for fluorescence by a Typhoon scanner at 635/670 nm. All probes show dose‐dependent binding to the CTSK, and have lower affinity to CTSS except GD36, b) CTSK [0.5–280 ng] was labeled with the indicated ABPs [5 µM]. Incubations were performed for 1 h at 37 °C, at pH 5.5. Samples were analyzed as described in (a). c) Recombinant cathepsins B, K, L, and S [0.5 µM] were first treated with the indicated concentrations of the inhibitor GD30 or vehicle for 1 h followed by incubation with a pan cathepsin probe GB123 [1 µM] for 1 h. Samples were analyzed as described in (a). d) Quantitative analysis of CTSK inhibition by GD30 presented in (d), data represent mean values ± standard error, n = 3. e) IC50 plot of GD30 inhibition of CTSK activity.
(§2) To further evaluate the probes for their selectivity, we applied a potent and selective covalent inhibitor, Compound 6 (GD30); the inhibitor was generated as a precursor of GD32 and GD36. GD30 was evaluated for its ability to block cathepsin activities by preincubating it with each recombinant enzyme before labeling it by a pan cathepsin ABP, GB123. […]
(§3) Recombinant cathepsin inhibition: Recombinant human CTSL, CTSB, CTSK, and CTSS (0.5 µM) were pretreated with different concentrations of inhibitors (GD30, ODN) for 1 h in reaction buffer (50 mM acetate, 4 mM DTT and 5 mM MgCl2, pH 5.5) at 37 °C. GB123, 1 µM, was added, and incubated with samples for 1 h at 37 °C. The reaction was stopped by the addition of sample buffer 4x (40% glycerol, 0.2 M Tris/HCl pH 6.8, 20% beta-mercaptoethanol, 12% SDS, and 0.4 mg/ml bromophenol blue). Samples were then boiled at 95 °C for 2 mins, separated on a 12.5% SDS gel, and scanned for fluorescence by a Typhoon scanner FLA 9500 at excitation/emission wavelengths of 635/670 nm.
(§4) Recombinant cathepsin labeling: Recombinant human CTSL, CTSB, CTSK, and CTSS (0.5 µM) were pretreated with different concentrations of probes (GD32, GD36, GD37, or GD42)

[2] = target: CTSS (Homo sapiens, UniProt P25774); details: even at 10 µM
Experimental: as §1, §2, §3, §4

[3] = target: CTSL (Homo sapiens, UniProt P07711); details: even at 10 µM
Experimental: as §1, §2, §3, §4

[4] = target: T1, CTSK (Homo sapiens, UniProt P43235); details: CTSK 0.5 µM, 1 h preincubation, then GB123 1 µM 1 h, pH 5.5
T1 sequence (P43235 115-329): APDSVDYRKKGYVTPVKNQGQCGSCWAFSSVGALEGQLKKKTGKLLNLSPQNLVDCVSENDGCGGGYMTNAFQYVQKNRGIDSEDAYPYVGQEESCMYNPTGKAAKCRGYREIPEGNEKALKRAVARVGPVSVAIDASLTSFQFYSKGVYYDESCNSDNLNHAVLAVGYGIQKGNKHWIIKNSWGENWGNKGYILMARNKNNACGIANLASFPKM
Experimental: as §1, §2, §3, §4

Chain of CTSL (P07711 114-333): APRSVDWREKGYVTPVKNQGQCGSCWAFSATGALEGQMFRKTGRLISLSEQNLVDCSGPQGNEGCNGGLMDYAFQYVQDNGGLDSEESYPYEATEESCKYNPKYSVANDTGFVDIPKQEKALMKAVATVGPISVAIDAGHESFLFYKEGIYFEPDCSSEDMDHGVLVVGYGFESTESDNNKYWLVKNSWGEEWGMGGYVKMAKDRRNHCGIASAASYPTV
Chain of CTSS (P25774 115-331): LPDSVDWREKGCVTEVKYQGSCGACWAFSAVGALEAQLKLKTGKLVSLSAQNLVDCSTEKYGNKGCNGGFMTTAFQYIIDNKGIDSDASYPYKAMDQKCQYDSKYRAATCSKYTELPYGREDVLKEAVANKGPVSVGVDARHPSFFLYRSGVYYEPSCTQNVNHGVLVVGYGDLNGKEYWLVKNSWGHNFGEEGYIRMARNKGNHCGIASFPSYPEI

inhibition of recombinant cathepsin [1]: not inhibiting | inhibition of recombinant cathepsin [2]: not inhibiting | inhibition of recombinant cathepsin [3]: not inhibiting | IC50 [4]: 561 nM
Compound: C#CCNC(=O)[C@H](CC(C)C)N[C@@H](c1ccc(-c2ccc(S(=O)(=O)CCNC(=O)OC(C)(C)C)cc2)cc1)C(F)(F)F [GD30]
